Laboratory results published in US20140057940A1, “Methods for Treating or Preventing Cardiac and Neurological Disorders Using Chemokine Receptor Antagonists” (priority 2011, published 2014).

Legend:
[1] = test system: SIV/17E-Fr and SIV/DeltaB670; assay: SIV-infected rhesus macaques: survival, CD4+ cell count and viral loads; type: in vivo
Text: Twenty-two adult rhesus macaques (mean age=11 years) pre-screened for SIV, STLV-1, and simian type D retrovirus were inoculated intravenously with the macrophagetropic clone SIV/17E-Fr and the immunosuppressive swarm SIV/DeltaB670 (FIG. 3). Age-matched adult rhesus macaques (mean age=11 years) were inoculated with media alone as controls. […] At euthanasia, all animals were perfused with saline to remove blood from the systemic vasculature. Hearts were immediately harvested and samples were immersion fixed in Streck Tissue Fixative (Streck, Omaha, Nebr.) or flash frozen.

SIV-infected macaques = conditions: echocardiography, FIG. 7
[2] = test system: CD68 and amyloid precursor protein (APP) in the brain; assay: Immunostaining for CD68 and amyloid precursor protein (APP) in the brain; type: in vivo, rhesus macaques; conditions: 200 mg PO BID
Method: (§1) To determine whether the CCR5 antagonist maraviroc altered CNS disease progression, SIV-infected animals from were treated with maraviroc and CNS outcomes were compared with untreated SIV-infected animals. Specifically, six rhesus macaques were inoculated with SIV/17E-Fr and SIV/DeltaB670 and treated with maraviroc (200 mg PO BID) beginning 24 days post-inoculation until the study endpoint 180 days postinoculation, 22 SIV-infected animals served as untreated, SIV-infected controls, and 8 additional animals served as untreated, uninfected controls (Example 2). Maraviroc levels in plasma and CSF were measured using liquid chromatography tandem mass spectrometry. SIV RNA levels in plasma, CSF, spleen, and brain were measured by qRT-PCR. Immunostaining for CD68 and amyloid precursor protein (APP) in the brain was measured by digital image analysis. Group comparisons were performed by the Mann-Whitney test.

[3] = test system: CD68+ macrophages and CD163 expression in the myocardium; assay: Immunostaining for macrophage markers CD68 and CD163 in myocardium; type: in vivo, rhesus macaques; conditions: SIV-infected macaques, FIG. 8
Text: To characterize the mononuclear cell populations in myocardium, sections were immunostained for the macrophage marker CD68 and measured by quantitative image analysis. In uninfected animals, CD68+ immunostaining localized to single, round cells located diffusely throughout the myocardium with increased numbers around vessels, consistent with resident macrophages. In SIV-infected animals, CD68+macrophages in perivascular areas were more prominent, likely reflecting recruited, infiltrating macrophages. […] Myocardium was also immunostained for the macrophage marker CD 163. […] In control animals, spindle shaped CD163+ cells were present diffusely throughout the myocardium occasionally forming small clusters. In SIV-infected macaques, cells were similarly spindle shaped to stellate with more extensive cellular processes. […] Myocardial CD163 immunostaining was highly correlated with CD68 immunostaining.

[4] = test system: SIV/17E-Fr and SIV/DeltaB670; assay: SIV RNA levels in plasma, CSF, spleen and brain by qRT-PCR; type: in vivo, rhesus macaques; conditions: 200 mg PO BID from day 24 to day 180 post-inoculation
Method: as §1

[5] = test system: isolated macaque cardiomyocytes; assay: Calcium transient amplitude in isolated cardiomyocytes; type: cell-based; conditions: FIG. 1E, ANOVA P=0.72
[6] = test system: isolated macaque cardiomyocytes; assay: Sarcomeric contraction of field-stimulated (1 Hz) isolated single cardiomyocytes; type: cell-based
Text: In addition to SIV, the chemokines CCL3, CCL4, and CCL5 can also bind to CCR5 and initiate signaling pathways. In order to evaluate the ability of CCL5 to alter sarcomeric contraction in a CCR5-dependent manner, isolated single cardiomyocytes were field stimulated (1 Hz) and sarcomeric contraction measured over time.

[7] = SIV-infected macaques, 40 mg/kg orally twice per day
[8] = versus untreated SIV-infected macaques

4,4-difluoro-N-{(1S)-3-[exo-3-(3-isopropyl-5-methyl-4H-1,2,4-triazol-4-yl)-8-azabicyclo[3.2.1]oct-8-yl]-1-phenylpropyl}cyclohexanecarboxamide [maraviroc]
outcomes (CSF, plasma, spleen, heart viral load) versus rapid (RP) and long term progression (LTP) groups ([1]; FIG. 6, LTP over 180 days post-SIV inoculation): improves outcomes in both RP and LTP groups
CD4+ cell counts [1, 7]: increased
survival relative to the untreated cohort [1, 7]: significantly increased
viral load in CSF [1, 7]: reduced
viral load in heart [1, 7]: reduced
viral load in plasma [1, 7]: reduced
viral load in spleen [1, 7]: reduced
mitral inflow parameters consistent with diastolic dysfunction with impaired relaxation (SIV-infected macaques): significantly ameliorated
CNS macrophage activation represented by CD68 immunostaining ([2]; P<0.001, FIG. 10): lowered
axonal APP immunostaining ([2]; P=0.003, FIG. 10): lowered
CD68+ macrophage level in myocardium [3]: do not change
CD163 expression by macrophages in myocardium [3]: lowered to levels present in uninfected and untreated subjects
SIV RNA levels in spleen [4]: reduced
plasma viral load [4]: reduced
SIV RNA levels in CSF [4, 8]: significantly lower
SIV RNA levels in brain [4, 8]: significantly lower
calcium transient amplitude ([5]; RANTES+MVC treatment): not altered
effect on the induced reduction in sarcomeric contraction ([6]; addition after CCL5, FIG. 1A-1C): reversed
difference in shortening between baseline and treatment ([6]; after CCL5, P=0.72): no significant difference
effect on the CCL5-induced decrease in sarcomeric shortening ([6]; subsequent addition in the same cells, FIG. 1D): modulated the CCL5 effect towards basal contraction

B1: CCL5: specific chemokine ligand that can bind to CCR5 and initiate signaling pathways (protein, UniProt P13501 24-91, looked up)
C-C motif chemokine 5: SPYSSDTTPCCFAYIARPLPRAHIKEYFYTSGKCSNPAVVFVTRKNRQVCANPEKKWVREYINSLEMS
calcium transient amplitude ([5]; RANTES treatment): not altered
sarcomeric shortening ([6]; 14 VCM, mean of 20 contraction cycles/cell at steady state, FIG. 1D, p<0.001): significantly decreased
mean % decline in contraction from baseline contraction length ([6]; isolated macaque cardiomyocytes, FIG. 1C, P=0.009): 22%
